Measured values from patent publication US20250326814A1, “MODIFIED OXYNTOMODULIN AND METHODS OF USE THEREOF” (OPKO BIOLOGICS LTD., priority 2024, published 2025).
pEC50: −log10 of the molar value. Entries after “also recorded” stand apart in the source; their conditions may differ. Non-standard residues stand in square brackets, D forms with d. Residues, ends and D or L forms follow the SMILES beside them. *: point of attachment. X1 = O=C(O)CCCCCCCCCCCCCCCCCCC(=O)N[C@@H](CCC(=O)NCCOCCOCC(=O)NCCOCCOCC(=O)N[C@@H](CCCCNC(=O)C*)C(=O)NCC(=O)O)C(=O)O; Aib = CC(C)(N)C(=O)O

Columns and labels:
[1] = Solubility data of the binder complex; format: physicochemical
Text: The structure and characteristics of the binder complex are detailed in Table 4 below.

[2] = biological target: T1, glucagon-like peptide-1 (GLP1) receptor (Homo sapiens, UniProt P43220); assay: GLP-1 activity EC50 of OXM analogs and GLP-1 therapeutics (Example 4, Table 9); format: cell-based; details: GLP-1 activity; Table 9; read-out: EC50
T1 construct: expressed in transfected cells; host or cells: CHO-K1
Text: The potencies of the modified OXM analogs newly disclosed in the present application, the OXM Analog alone, and the PEGylated OXM analog were examined and compared by measuring the EC50 of both receptors, glucagon-like peptide-1 (GLP1) and glucagon (GCGR).

GLP1 = GLP1 (Homo sapiens, UniProt P43220); assay: GLP-1 activity in vitro of PEGylated and acylated OXM peptide analogs (Table 12); format: cell-based
Method: (§4) The potential benefits of novel acylated OXM products relative to the PEGylated OXM peptide were evaluated for GLP-1 and Glucagon activity in vitro, molecular weight, dosing, and efficacy in a DIO Mouse model.
(§5) The potency of the acylated OXM peptides was compared with the native OXM peptide alone and Pegylated OXM peptide to evaluate the impact of acylation on GLP-1 and Glucagon activities.

GCGR = GCGR (Homo sapiens, UniProt P47871); assay: Glucagon activity in vitro of PEGylated and acylated OXM peptide analogs (Table 12); format: cell-based
Method: as §4, §5

DIO mice [3] = assay: Body weight and food intake in DIO mice, 4 weeks daily treatment; format: in vivo
Method: (§1) The animals were individually weighed and analyzed for lipid and cholesterol levels prior to treatment and following completion of the study. The levels of fasting glucose and insulin levels were analyzed, and oral glucose tolerance test was performed and compared between groups The levels of plasma triglycerides and cholesterol were evaluated at the end of study and compared to base levels prior to treatment. Levels of total cholesterol, triglycerides and glycogen were also examined at the end of study. Histology of liver was used to analyze for lipid droplets in the liver. All tests were conducted using routine methods known in the art.
The mice used in the studies were the gubra diet-induced obese (DIO) mouse model. This mouse model is fed a high fat diet that results in rapid weight gain. The DIO mice were based on male C57BI/6J mice and ready for experiment after 18 weeks on a 60% high fat diet.
To ensure accurate monitoring of weight changes over the course of the study, the animals were weighed daily with precision, prior to dosing at 7:00 AM. Body weight data was recorded in two formats: (1) Absolute measurements: The direct weight of the animal each day, and (2) Relative measurements: The weight expressed as a percentage relative to the body weight recorded on Day 1.
(§2) Sixty C57BL/6JRj male mice were fed a high fat diet (60% HFD, D12492—Ssniff) for 20 weeks before treatment start. […] Body weight and food intake (24 h) were measured daily. In week 3, an OGTT study was performed. Baseline and preterminal fasting blood glucose and plasma insulin were assessed. Preterminal plasma TC and TG were assessed. Terminal endpoints included liver and heart weight, liver TC, TG, […] and lipid content (HE staining).

DIO mice [4] = assay: Body composition (fat and lean tissue mass) in DIO mice; format: in vivo
Method: The body composition of mice was assessed by an EchoMRI 3 in 1 Body composition analyzer (EchoMRI, US). Non-anaesthetized animals were placed in a plastic tube inside the MRI scanner for approximately 80 seconds. The body composition was reported as fat mass and fat free mass (lean mass).
as §2

DIO mice [5] = assay: Liver cholesterol, triglyceride and glycogen in DIO mice; format: in vivo
Method: (§3) After termination, the liver was collected and weighed. Specific liver samples and biopsies were dissected and processed as specified in table “Termination samples” in the protocol and further described below.
The Liver TG TC piece (25±5 mg) was dissected from the right medial lobe, with no edges, on the opposite side of the sponsor piece. The samples were weighed individually, collected in tubes and frozen in liquid nitrogen. The samples were stored at −70° C.
Liver Triglycerides (TG) and Total cholesterol (TC): The liver content of triglyceride and total cholesterol was extracted from the liver samples into 5% NP-40, in a homogenization process followed by a heating step, where the samples were heated twice to 90° C. The samples were then centrifuged, and the supernatant was collected. The TG and TC levels were then determined by measurement on the cobas c 501 autoanalyzer with the relevant commercial kits from Roche Diagnostics.
as §2

DIO mice [6] = assay: Liver H&E staining for lipid droplets / liver lipid in DIO mice; format: in vivo
Method: In summary, glass slides with paraffin embedded sections were deparaffinated in xylene and rehydrated in series of graded ethanol.
Slides treated with histochemical and immunohistochemical stains were scanned using a 20× objective in a ScanScope AT slide scanner (Aperio).
Hematoxylin & Eosin (H&E) staining: Sections of FFPE tissue were incubated in Mayer's Hematoxylin (Dako), washed in tap water, stained in Eosin Y solution (Sigma-Aldrich), dehydrated in graded ethanol and cover slipped.
as §2

DIO mice [7] = assay: Plasma cholesterol and triglyceride in DIO mice; format: in vivo
Method: For termination blood samples, during anesthesia with isoflurane, the abdominal cavity was opened, and cardiac blood was drawn with a syringe into a Microvette/Vacuette of appropriate dimensions with anticoagulant and mixed by inversion 5 times. Blood was placed at 4° C. until centrifuged at 3000 g for 10 minutes. The plasma supernatants were transferred to new tubes and immediately frozen on dry ice. The samples were stored at −70° C.
Alanine transaminase (ALT), Aspartate transaminase (AST), Triglycerides (TG) and Total Cholesterol (TC): Blood samples were collected in heparinized tubes and plasma was separated and stored at −70° C. until analysis. Samples were measured using commercial kits (Roche Diagnostics), on the cobas c 501 autoanalyzer.
as §2

DIO mice [8] = assay: Fasting blood glucose and plasma insulin in DIO mice; format: in vivo
Method: For in vivo blood samples, tail-vein, tongue or cheek blood was collected in a Microvette tube of appropriate dimensions with anticoagulant and mixed by inversion 5 times. Blood was placed at 4° C. until centrifuged at 3000 g for 10 minutes. The plasma supernatants were transferred to new tubes and immediately frozen on dry ice. The samples were stored at −70° C.
Insulin: Blood samples were collected in heparinized tubes and plasma was separated and stored at −70° C. until analysis. Insulin was measured using the commercial MSD platform (Meso Scale Diagnostics).
as §2

DIO mice [9] = assay: Oral glucose tolerance test in DIO mice; format: in vivo
Method: Animals were housed in a clean cage and fasted for 4 hours prior to oral or intraperitoneal glucose administration. At timepoint 0, mice receive an oral or intraperitoneal dose of 10 ml/kg of 200 mg/ml standard glucose solution (Fresenius Kabi, DK). At timepoint 0, mice received an oral or intraperitoneal dose of 4 ml/kg of standard 500 mg/ml glucose solution (Fresenius Kabi, DK). Blood samples (10 μl) were collected at various timepoints defined in the study protocol into heparinized glass capillary tubes and immediately suspended in glucose/lactate system solution buffer (EKF-diagnostics, Germany). Blood glucose (BG) was measured using a BIOSEN c-Line glucose meter (EKF-diagnostics, Germany) according to the manufacturer's instructions. After the last blood sample and/or drug dose, the animals were returned to the normal feeding schedule.
as §2

DIO mice [10] = assay: Organ weights at termination in DIO mice; format: in vivo; details: mid and high (5 and 15 nmol/kg)
Method: as §3, §2

DIO mice [11] = assay: Weight loss in DIO mice with OPK-88604 and OPK-88006, 30 nmoles/kg; format: in vivo; details: vs placebo, listed as OPK-88604
Method: as §1
DIO mice with weights of around 55 grams were divided into three groups and treated with placebo, 30 nmoles/kg of OPK-88604, or 30 nmoles/kg of OPK-88006 for 4 weeks. The animals were weighed daily for the period of treatment.

[12] = 15 nmol/kg daily, 28 days, OPK-88604 vs semaglutide
[13] = 28 day treatment, vs semaglutide
[14] = mid and high (5 and 15 nmol/kg)
[15] = 28 day treatment, vs semaglutide, listed as OPK-88604

Sequence of GCGR (P47871 26-477): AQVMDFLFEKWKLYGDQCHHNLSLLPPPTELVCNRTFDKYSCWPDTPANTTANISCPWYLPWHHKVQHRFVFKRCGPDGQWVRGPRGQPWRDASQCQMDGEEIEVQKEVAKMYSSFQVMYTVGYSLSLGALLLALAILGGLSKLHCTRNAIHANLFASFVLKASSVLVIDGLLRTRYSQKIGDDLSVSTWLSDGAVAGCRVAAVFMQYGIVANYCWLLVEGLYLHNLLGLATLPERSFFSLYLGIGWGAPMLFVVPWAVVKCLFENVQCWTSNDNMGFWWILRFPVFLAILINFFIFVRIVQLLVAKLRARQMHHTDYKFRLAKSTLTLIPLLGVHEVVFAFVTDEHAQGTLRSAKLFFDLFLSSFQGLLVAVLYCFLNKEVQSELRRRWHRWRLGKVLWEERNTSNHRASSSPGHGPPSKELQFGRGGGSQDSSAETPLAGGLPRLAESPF
Sequence of GLP1 (P43220 24-463): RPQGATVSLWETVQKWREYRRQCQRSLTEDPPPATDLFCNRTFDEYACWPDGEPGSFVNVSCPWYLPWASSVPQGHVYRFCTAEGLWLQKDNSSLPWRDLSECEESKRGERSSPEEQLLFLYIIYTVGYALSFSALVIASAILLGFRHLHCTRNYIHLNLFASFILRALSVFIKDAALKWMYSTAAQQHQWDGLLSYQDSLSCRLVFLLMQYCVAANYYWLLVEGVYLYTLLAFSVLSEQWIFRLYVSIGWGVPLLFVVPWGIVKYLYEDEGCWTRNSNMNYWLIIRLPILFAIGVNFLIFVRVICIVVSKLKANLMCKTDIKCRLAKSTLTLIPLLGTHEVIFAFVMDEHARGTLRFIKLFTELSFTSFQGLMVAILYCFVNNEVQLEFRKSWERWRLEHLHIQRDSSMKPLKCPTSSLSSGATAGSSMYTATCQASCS
T1 sequence (P43220 24-463): as above

Eicosanedioic-[…]Glu-(AEEA)2-Lys(Ac-Br)-Gly-OH [Binder Complex]
Solubility data [1]: Water-based buffer at pHs 6.5-7.5

CC[C@H](C)[C@H](NC(=O)[C@H](CC(N)=O)NC(=O)[C@H](CC(N)=O)NC(=O)[C@H](CCCNC(=N)N)NC(=O)[C@H](CC(N)=O)NC(=O)[C@H](CCCNC(=N)N)NC(=O)CNC(=O)C(C)(C)NC(=O)[C@H](CC(N)=O)NC(=O)[C@H](CC(C)C)NC(=O)[C@H](CC(C)C)NC(=O)[C@H](Cc1c[nH]c2ccccc12)NC(=O)[C@H](CCC(N)=O)NC(=O)[C@@H](NC(=O)[C@H](Cc1ccccc1)NC(=O)[C@H](CCC(=O)O)NC(=O)[C@H](CCC(N)=O)NC(=O)[C@H](C)NC(=O)[C@H](CCCCN)NC(=O)[C@H](CCCCN)NC(=O)[C@H](CO)NC(=O)[C@H](CC(=O)O)NC(=O)[C@H](CC(C)C)NC(=O)[C@H](Cc1ccc(O)cc1)NC(=O)[C@H](CCCCN)NC(=O)[C@H](CO)NC(=O)[C@H](Cc1ccc(O)cc1)NC(=O)[C@H](CC(=O)O)NC(=O)[C@H](CO)NC(=O)[C@@H](NC(=O)[C@H](Cc1ccccc1)NC(=O)[C@@H](NC(=O)CNC(=O)[C@H](CCC(N)=O)NC(=O)C(C)(C)NC(=O)[C@@H](N)Cc1c[nH]cn1)[C@@H](C)O)[C@@H](C)O)C(C)C)C(=O)N[C@@H](C)C(=O)N[C@@H](CSCC(=O)NCCCC[C@H](NC(=O)COCCOCCNC(=O)COCCOCCNC(=O)CC[C@H](NC(=O)CCCCCCCCCCCCCCCCCCC(=O)O)C(=O)O)C(=O)NCC(=O)O)C(N)=O [Variant 1] (H-H[Aib]QGTFTSDYSKYLDSKKAQEFVQWLLN[Aib]GRNRNNIAC(X1)-NH2)
pEC50 [2]: 10.05
EC50 (GLP1): 0.0159 nM
EC50 (GCGR): 0.164 nM
GCGR/GLP-1R (GCGR; ratio of EC50 activity): 10.3
food consumption / cumulative food intake (FIG. 17B, 18B) (DIO mice [3]; [12]): Reduced food consumption significantly less than treatment with semaglutide
weight loss from baseline (FIG. 17A, 18A) (DIO mice [3]; 15 nmol/kg daily, 28 days, OPK-88604 vs semaglutide vs placebo): similar
relative body weight (day 28), P compared to Vehicle (FIG. 16B) (DIO mice [3]; Mid, 5 nmol/kg QD SC): < 0.05
absolute and relative body weight and fat mass compared to the vehicle group (DIO mice [3]; high (15 nmol/kg), four weeks): reduced both absolute and relative body weight and fat mass
relative body weight compared to the vehicle group (DIO mice [3]; mid (5 nmol/kg), four weeks): reduced relative body weight
relative fat tissue mass / relative lean tissue mass at week 4, P compared to Vehicle (FIG. 22A, 22B) (DIO mice [4]; 15 nmol/kg QD SC): < 0.01
relative lean body mass and fat mass change from baseline on day 28 (FIG. 24A, 24B) (DIO mice [4]; [12]): statistically similar
total liver cholesterol, P compared to Vehicle (FIG. 25B) (DIO mice [5]; 15 nmol/kg QD SC): < 0.05
total liver cholesterol, triglycerides and glycogen, change from baseline on day 28 (FIG. 28A-C) (DIO mice [5]; [13]): significantly more effective in reducing total liver cholesterol, triglycerides, and glycogen
total liver TC (DIO mice [5]; high (15 nmol/kg)): reduced
liver TG (total and relative) (DIO mice [5]; [14]): reduced
relative liver lipid / total liver lipid, P compared to Vehicle (FIG. 31A, 31B) (DIO mice [6]; 15 nmol/kg QD SC): < 0.001
lipid droplets in liver, H&E staining (FIG. 30A-C) (DIO mice [6]; 28 day treatment, vs placebo and semaglutide, listed as OPK-88604): reduced the amount of lipid droplets in liver compared to placebo and animals treated with semaglutide; also recorded: Significantly reduced the amount of lipid droplets in liver compared to Semaglutide
liver lipid content (total and relative) (DIO mice [6]; high (15 nmol/kg)): reduced
total plasma cholesterol and triglycerides on day 28 (FIG. 33A, 33B) (DIO mice [7]; [13]): significantly more effective in reducing total plasma cholesterol and triglycerides compared to semaglutide
plasma TC levels at termination (DIO mice [7]; [14]): reduced
fasting glucose change from baseline on day 28 (FIG. 35A) (DIO mice [8]; [15]): significant decrease in fasting glucose levels compared to semaglutide treatment; also recorded: significantly more effective in lowering fasting glucose levels
fasting insulin change from baseline on day 28 (FIG. 35B) (DIO mice [8]; [15]): marked increase in insulin levels from baseline compared to semaglutide treatment; also recorded: increased insulin levels compared to Semaglutide
blood glucose levels at study week 4 (DIO mice [8]; all doses (2, 5, 15 nmol/kg)): reduced blood glucose levels
plasma insulin levels during the glucose tolerance test and preterminal (DIO mice [8]; high (15 nmol/kg)): decreased
blood glucose in response to an oral glucose bolus compared to vehicle controls (DIO mice [9]; all OPK-88604 groups (2, 5, 15 nmol/kg)): reduced blood glucose compared to vehicle controls
glucose AUC in OGTT (FIG. 38B) (DIO mice [9]; treated for 3 weeks, vs semaglutide): statistically lower
glucose levels in Oral Glucose Tolerance test (FIG. 38A) (DIO mice [9]; treated for 3 weeks, vs semaglutide, listed as OPK-88604): more effective in reducing glucose levels in an Oral Glucose Tolerance test compared to Semaglutide
heart weight (DIO mice [10]): reduced
weight loss over 4 weeks (FIG. 41A, 41B) (DIO mice [11]): significant weight loss over 4 weeks compared to placebo
